Test system: plasma protein extravasation in the ureter
Test: capsaicin-induced plasma extravasation test
Format: in vivo
Settings: 0.03 mg/kg, given orally 1 hour before capsaicin challenge, male guinea pigs
Protocol: In this test, anti-inflammatory activity is determined as the percent inhibition of plasma protein extravasation in the ureter of pentobarbital-anesthetized (25 mg/kg i.p.) male Hartey guinea pigs (weighing 300-350 g). Plasma extravasation is induced by intraperitoneal injection of capsaicin (30 μM in 0.1 BSA containing buffer, 10 ml/animal) into the animals, which are fasted overnight. The compounds of this invention were dissolved in 0.1% methyl cellulose-water and given orally 1 hour before capsaicin challenge. Evans blue dye (30 mg/kg) was administered intravenously 5 minutes before challenge. The animals were killed 10 minutes after capsaicin injection and both right and left ureter were removed. Tissue dye content was quantitated at 600 nm absorbance after overnight formamide extraction.

## COc1cc2c(cc1CN[C@H]1CCCN[C@H]1c1ccccc1)C(C)(C(F)(F)F)OCC2.Cl.Cl (stereo partly drawn) [Example 3, (2S,3S)-3-(6-Methoxy-1-methyl-1-trifluoromethylisochroman-7-yl)methylamino-2-phenylpiperidine Dihydrochloride]
  percent inhibition of plasma protein extravasation: 98%
